ChEMBL document CHEMBL1201862, “PubChem BioAssay data set” (2004)
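Where inhibition never reached the appropriate level, the endpoint shown equals the highest concentration tested. Otherwise, values were interpolated linearly from a five-concentration, 48-hour dose response in 96-well plates. Abbreviation: GI50, concentration required for 50% inhibition of growth.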 Activity calls are given as the source filed them. Cut-off read from the data, not from the text of the source: active = GI50 up to about 1.1 µM and inactive = higher.

Key:
Assay in all cases: NCI tumour cell line growth inhibition, 48 h
HOP-92 = test system: HOP-92
MDA-MB-231 = test system: MDA-MB-231
HOP-62 = test system: HOP-62
MCF7 = test system: MCF7
MDA-MB-435 = test system: MDA-MB-435
KM12 = test system: KM12
HT-29 = test system: HT-29
T47D = test system: T47D
DU-145 = test system: DU-145
SK-MEL-5 = test system: SK-MEL-5
MDA-N = test system: MDA-N
NCI-H522 = test system: NCI-H522
A549 = test system: A549
LOX IMVI = test system: LOX IMVI
SF-268 = test system: SF-268
OVCAR-3 = test system: OVCAR-3
HCC 2998 = test system: HCC 2998
M14 = test system: M14
SNB-75 = test system: SNB-75
NCI-H226 = test system: NCI-H226
HCT-116 = test system: HCT-116
786-0 = test system: 786-0
COLO 205 = test system: COLO 205
ACHN = test system: ACHN
NCI-H460 = test system: NCI-H460
SK-MEL-28 = test system: SK-MEL-28
OVCAR-4 = test system: OVCAR-4
CCRF-CEM = test system: CCRF-CEM
K562 = test system: K562
HL-60 = test system: HL-60
NCI/ADR-RES = test system: NCI/ADR-RES
EKVX = test system: EKVX
Malme-3M = test system: Malme-3M
SK-OV-3 = test system: SK-OV-3
SW-620 = test system: SW-620
IGROV-1 = test system: IGROV-1
UACC-62 = test system: UACC-62
A498 = test system: A498
NCI-H23 = test system: NCI-H23
U-251 = test system: U-251
UACC-257 = test system: UACC-257
RPMI-8226 = test system: RPMI-8226
BT-549 = test system: BT-549
Hs-578T = test system: Hs-578T
SF-539 = test system: SF-539
SF-295 = test system: SF-295
MOLT-4 = test system: MOLT-4
TK-10 = test system: TK-10
HCT-15 = test system: HCT-15
OVCAR-5 = test system: OVCAR-5
OVCAR-8 = test system: OVCAR-8
SN12C = test system: SN12C
CAKI-1 = test system: CAKI-1
SNB-19 = test system: SNB-19
RXF 393 = test system: RXF 393
PC-3 = test system: PC-3
SK-MEL-2 = test system: SK-MEL-2
UO-31 = test system: UO-31
SR = test system: SR

Measured: GI50

O=C1N/C(=N/N=C/C(O)C(O)C(O)CO)N/C1=C\c1ccco1 (centres undefined)
> 100 µM: HCT-15
inactive: HOP-92 > 100 µM | MDA-MB-231 > 100 µM | HOP-62 > 100 µM | MCF7 > 100 µM | MDA-MB-435 > 100 µM | KM12 > 100 µM | HT-29 > 100 µM | T47D > 100 µM | DU-145 > 100 µM | SK-MEL-5 > 100 µM | MDA-N > 100 µM | NCI-H522 > 100 µM | A549 64.6 µM | LOX IMVI > 100 µM | SF-268 > 100 µM | OVCAR-3 > 100 µM | HCC 2998 > 100 µM | M14 > 100 µM | SNB-75 > 100 µM | NCI-H226 > 100 µM | HCT-116 > 100 µM | 786-0 > 100 µM | COLO 205 > 100 µM | ACHN > 100 µM | NCI-H460 > 100 µM | SK-MEL-28 > 100 µM | OVCAR-4 > 100 µM | CCRF-CEM 93.1 µM | K562 > 100 µM | HL-60 > 100 µM | NCI/ADR-RES > 100 µM | EKVX > 100 µM | Malme-3M > 100 µM | SK-OV-3 > 100 µM | SW-620 > 100 µM | IGROV-1 > 100 µM | UACC-62 > 100 µM | A498 > 100 µM | NCI-H23 > 100 µM | U-251 > 100 µM | UACC-257 > 100 µM | RPMI-8226 > 100 µM | BT-549 > 100 µM | Hs-578T > 100 µM | SF-539 > 100 µM | SF-295 > 100 µM | MOLT-4 > 100 µM | TK-10 > 100 µM | OVCAR-5 > 100 µM | OVCAR-8 > 100 µM | SN12C > 100 µM | CAKI-1 > 100 µM | RXF 393 > 100 µM
active: SNB-19 0.0354 µM

O=C(O)C1NCCc2c1[nH]c1ccccc21 (centres undefined)
inactive: MDA-MB-231 > 10 µM | HOP-62 > 10 µM | MCF7 > 10 µM | MDA-MB-435 > 10 µM | T47D > 10 µM | DU-145 > 10 µM | MDA-N > 10 µM | NCI/ADR-RES > 10 µM | RPMI-8226 > 10 µM | BT-549 > 10 µM | Hs-578T > 10 µM | PC-3 > 10 µM | RXF 393 > 10 µM

C/C(=N\c1cc(Cl)cc(Cl)c1)c1ccncc1
inactive: HOP-92 63.8 µM | MDA-MB-231 > 100 µM | HOP-62 > 100 µM | MCF7 > 100 µM | MDA-MB-435 > 100 µM | KM12 > 100 µM | HT-29 > 100 µM | T47D > 100 µM | DU-145 > 100 µM | SK-MEL-5 > 100 µM | SK-MEL-2 > 100 µM | MDA-N > 100 µM | NCI-H522 > 100 µM | A549 > 100 µM | LOX IMVI > 100 µM | SF-268 > 100 µM | OVCAR-3 > 100 µM | HCC 2998 > 100 µM | M14 > 100 µM | SNB-75 > 100 µM | NCI-H226 > 100 µM | HCT-116 > 100 µM | 786-0 > 100 µM | COLO 205 > 100 µM | ACHN > 100 µM | NCI-H460 > 100 µM | SK-MEL-28 > 100 µM | OVCAR-4 > 100 µM | CCRF-CEM > 100 µM | K562 > 100 µM | NCI/ADR-RES > 100 µM | EKVX > 100 µM | Malme-3M > 100 µM | SK-OV-3 29.9 µM | SW-620 > 100 µM | IGROV-1 > 100 µM | UACC-62 15 µM | A498 > 100 µM | NCI-H23 > 100 µM | U-251 > 100 µM | UACC-257 > 100 µM | RPMI-8226 31 µM | BT-549 > 100 µM | Hs-578T > 100 µM | SF-539 > 100 µM | SF-295 > 100 µM | MOLT-4 > 100 µM | TK-10 > 100 µM | UO-31 89.7 µM | OVCAR-5 > 100 µM | OVCAR-8 > 100 µM | SN12C > 100 µM | PC-3 > 100 µM | CAKI-1 > 100 µM | SNB-19 > 100 µM | RXF 393 > 100 µM
> 100 µM: HCT-15

CC1(C)CC(=O)c2c(nc3ccc4ccccc4c3c2-c2ccc(NC(=O)CCCC(=O)Nc3ccc(-c4c5c(nc6ccc7ccccc7c46)CC(C)(C)CC5=O)cc3)cc2)C1
> 100 µM: HCT-15
inactive: HOP-92 > 100 µM | MDA-MB-231 > 100 µM | HOP-62 > 100 µM | MCF7 > 100 µM | MDA-MB-435 > 100 µM | KM12 > 100 µM | HT-29 > 100 µM | T47D > 100 µM | DU-145 > 100 µM | SK-MEL-5 > 100 µM | SK-MEL-2 > 100 µM | MDA-N > 100 µM | A549 > 100 µM | LOX IMVI > 100 µM | SF-268 > 100 µM | OVCAR-3 > 100 µM | M14 > 100 µM | SNB-75 41.6 µM | NCI-H226 > 100 µM | HCT-116 > 100 µM | 786-0 > 100 µM | COLO 205 > 100 µM | SR > 100 µM | ACHN > 100 µM | NCI-H460 > 100 µM | SK-MEL-28 > 100 µM | CCRF-CEM > 100 µM | K562 > 100 µM | HL-60 5.94 µM | NCI/ADR-RES > 100 µM | EKVX > 100 µM | SK-OV-3 > 100 µM | SW-620 > 100 µM | IGROV-1 > 100 µM | UACC-62 > 100 µM | A498 > 100 µM | NCI-H23 > 100 µM | U-251 > 100 µM | UACC-257 > 100 µM | RPMI-8226 > 100 µM | BT-549 > 100 µM | Hs-578T 60.3 µM | SF-539 > 100 µM | SF-295 > 100 µM | MOLT-4 > 100 µM | TK-10 > 100 µM | UO-31 > 100 µM | OVCAR-5 > 100 µM | OVCAR-8 > 100 µM | SN12C > 100 µM | PC-3 > 100 µM | CAKI-1 > 100 µM | SNB-19 > 100 µM

CCOC(=O)/C(C(=O)Nc1ccc(Cl)cc1)=C(/N)N1CCOCC1
inactive: MDA-MB-231 > 100 µM | HOP-62 > 100 µM | MCF7 > 100 µM | MDA-MB-435 > 100 µM | KM12 > 100 µM | HT-29 > 100 µM | T47D > 100 µM | DU-145 > 100 µM | SK-MEL-2 > 100 µM | MDA-N > 100 µM | NCI-H522 > 100 µM | A549 > 100 µM | LOX IMVI > 100 µM | SF-268 > 100 µM | OVCAR-3 > 100 µM | HCC 2998 > 100 µM | M14 > 100 µM | SNB-75 > 100 µM | NCI-H226 > 100 µM | HCT-116 > 100 µM | 786-0 > 100 µM | COLO 205 > 100 µM | ACHN > 100 µM | NCI-H460 > 100 µM | SK-MEL-28 > 100 µM | OVCAR-4 > 100 µM | CCRF-CEM > 100 µM | K562 > 100 µM | HL-60 > 100 µM | NCI/ADR-RES > 100 µM | EKVX > 100 µM | Malme-3M > 100 µM | SK-OV-3 > 100 µM | SW-620 > 100 µM | IGROV-1 > 100 µM | UACC-62 > 100 µM | A498 > 100 µM | NCI-H23 > 100 µM | U-251 > 100 µM | UACC-257 > 100 µM | RPMI-8226 > 100 µM | BT-549 > 100 µM | Hs-578T > 100 µM | SF-539 > 100 µM | SF-295 > 100 µM | MOLT-4 > 100 µM | TK-10 > 100 µM | OVCAR-5 > 100 µM | OVCAR-8 > 100 µM | SN12C > 100 µM | PC-3 > 100 µM | CAKI-1 > 100 µM | SNB-19 > 100 µM | RXF 393 > 100 µM
> 100 µM: HCT-15
